This is an account of results in patent US9180107B2 (NANOPHARMACEUTICALS LLC, priority 2009, dated 2015).

SMILES strings stand for the structures.

Series [1] has as its system human embryonic kidney 293T cells. Description: Proliferation of non-malignant cells. As to conditions: 10^−6M daily for 7 days. Type of series: cell-based. The protocol: FIG. 9 is a series of graphs showing the comparison of nano-tetrac and tetrac on cell proliferation in non-malignant cells. CV-1 cells (FIG. 9A) and 293 T cells (FIG. 9B) were treated daily with 10^−6 M tetrac or nano-tetrac. Cells were harvested at the time points indicated. Total cell numbers taken after each treatment were used as an indicator for tetrac- or nano-tetrac-induced anti-proliferation.
In order to confirm that tetrac and nano-tetrac only suppress cell proliferation in cancer cells, tetrac and nano-tetrac were also examined for potential anti-proliferative effects on immortalized non-malignant cells, using monkey kidney epithelial CV-1 cells and human embryonic kidney 293T cells. The cells were treated daily with either 10^−6M tetrac or 10^−6M nano-tetrac for 7 days, then were harvested, counted and examined microscopically.

Series [2] concerns Human adenoid cystic carcinoma TGS112T cells. Description: [3H]-thymidine incorporation. Type of series: cell-based. The procedure: TGS112T cells were seeded in 24-well trays and exposed to 10% hormone-depleted FBS-supplemented medium for 2 d, then treated with 0.25% hormone-depleted FBS-supplemented medium prior to starting the experiments. Aliquots of cells were treated with T4, tetrac or nano-tetrac as indicated, as well as 1 μCi [^3H]-thymidine (final concentration, 13 nM) for 24 h. Cells were then washed twice with cold PBS. TCA (5%, 1 mL) was added and the plate was held at 4° C. for 30 min. The precipitate was washed twice with cold ethanol; 2% SDS (1 mL) was added to each well and the TCA-precipitable radioactivity was quantitated in a liquid scintillation counter.
Human adenoid cystic carcinoma TGS112T cells were cultured in medium that contained 0.25% hormone-stripped serum for 2 d and then treated with 10^−7 M tetrac or nano-tetrac for 30 min prior institution of 10^−7 M T4 treatment for 24 h. Nuclear proteins were separated by SDS-PAGE followed by western blot analysis with proliferating-cell nuclear antigen (PCNA) antibody. Thyroid hormone-induced PCNA accumulation was inhibited by tetrac. (See FIG. 6A). […] (See FIG. 6A). Inhibition of thyroid hormone-induced proliferation was confirmed by inhibition by tetrac and nano-tetrac of thyroid hormone-induced accumulation and [^3H]-thymidine incorporation. (See FIG. 6B). […] (See FIG. 6B). […] The effect of nano-tetrac and tetrac on cell proliferation was examined by counting TGS112T cells which were treated daily with 10^−6 M tetrac or 10^−6 M nano-tetrac. […] (See FIG. 6C).

`O=C(O)Cc1cc(I)c(Oc2cc(I)c(O)c(I)c2)c(I)c1` [tetrac, Tetraiodothyroacetic acid]: in series [1], the “change in cell numbers and morphology vs untreated control” value was “no significant change”. For the same compound, the “reduction of T4-induced thymidine incorporation” value in series [2] (10^−7 M with 10^−7 M T4, 24 h) was determined as 5 fold. For the same compound, the “effect of agent alone on thymidine incorporation” value in series [2] (10^−7 M, 24 h) was “stimulated thymidine incorporation”.
